The text below walks through data of patent US20240228488A1 (TAKEDA PHARMACEUTICAL COMPANY LIMITED, priority 2021, published 2024).

The target of assay [1] is human activated kallikrein enzyme (Homo sapiens, UniProt P03952). The experiment in a line: Plasma kallikrein inhibition, fluorogenic PFR-AMC substrate, 500 pM activated kallikrein format. The assay is classed as biochemical. As to conditions: 500 pM activated kallikrein, 300 uM PFR-AMC, 30 min preincubation, 10 min reaction; read-out: Primary Dose Response Assay: Average EC50. In a few lines:
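Enzyme (500 pM) was preincubated with inhibitor for 30 min at room temperature in 20 mM Tris pH 7.5, 1 mM EDTA, 150 mM NaCl, 0.1% PEG-400 and 0.1% Triton X-100. The reaction was started with 300 uM PFR-AMC, run 10 min, and fluorescence read at 460 nm (380 nm excitation). EC50 derived.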

The next assay concerns the target T1, plasma kallikrein (Homo sapiens, UniProt P03952).
T1 construct: from tissue
The experiment in a line: Neat human plasma assay, FXIIa contact pathway-activated, PFR-AMC substrate. The assay is classed as biochemical. As to conditions: citrated human plasma 78% final, 10 nM human FXIIa, 100 μM PFR-AMC; read-out: Human Plasma Assay: IC90. The procedure, abridged:
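Citrated human plasma (78% final) with compound, contact-activated by 10 nM human FXIIa in pKal buffer pH 7.5, with 100 μM PFR-AMC. Fluorescence (360/480 nm) followed 5 min at room temperature; rates versus concentration fitted by 4-parameter equation for IC50/IC90.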

T1 sequence (P03952 391-638 limits assumed): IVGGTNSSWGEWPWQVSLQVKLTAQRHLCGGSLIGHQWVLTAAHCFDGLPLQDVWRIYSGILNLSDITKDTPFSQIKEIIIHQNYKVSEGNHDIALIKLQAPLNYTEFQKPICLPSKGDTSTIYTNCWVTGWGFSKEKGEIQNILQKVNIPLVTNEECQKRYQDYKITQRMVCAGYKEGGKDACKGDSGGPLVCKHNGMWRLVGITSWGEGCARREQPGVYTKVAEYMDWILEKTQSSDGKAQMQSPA
T1 sequence (P03952 20-390 partner limits assumed): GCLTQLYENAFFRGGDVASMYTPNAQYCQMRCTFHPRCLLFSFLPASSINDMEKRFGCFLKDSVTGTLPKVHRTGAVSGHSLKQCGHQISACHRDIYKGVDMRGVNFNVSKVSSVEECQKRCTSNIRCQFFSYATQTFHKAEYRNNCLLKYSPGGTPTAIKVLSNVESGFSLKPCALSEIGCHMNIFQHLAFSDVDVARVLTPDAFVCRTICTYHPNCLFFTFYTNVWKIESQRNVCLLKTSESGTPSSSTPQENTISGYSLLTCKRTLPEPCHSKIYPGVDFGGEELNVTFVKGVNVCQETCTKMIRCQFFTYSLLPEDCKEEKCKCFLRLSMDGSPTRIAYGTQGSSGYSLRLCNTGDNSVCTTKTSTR
human activated kallikrein enzyme, sequence (P03952 391-638 limits assumed): as the sequence (P03952 391-638 limits assumed) above
human activated kallikrein enzyme, sequence (P03952 20-390 partner limits assumed): as the sequence (P03952 20-390 partner limits assumed) above

Consider `O=C(Nc1cc(N2C[C@@H](O)C[C@@H]2c2cn3cc(C4CC4)ccc3n2)ncn1)[C@H]1C[C@@H]1c1nccc(Cl)n1` (relative stereo) [Example 481, rac-(1S*,2S*)-2-(4-chloropyrimidin-2-yl)-N-(6-((2R,4S)-2-(6-cyclopropylimidazo[1,2-a]pyridin-2-yl)-4-hydroxypyrrolidin-1-yl)pyrimidin-4-yl)cyclopropane-1-carboxamide], for which the EC50 (commonly the concentration giving half of the maximal effect) in assay [1] is below 1 nM. Also, the 90% effect concentration (IC90) (as a rule, the concentration needed for an effect of 90%) on plasma kallikrein lay in the range of 1500 to 10000 nM.
On the same counts, the results for `Cc1ccnc([C@H]2C[C@@H]2C(=O)Nc2cc(N3C[C@@H](O)C[C@@H]3c3cn4cc(C5CC5)cc(N5CC6CC6C5=O)c4n3)ncn2)n1` (relative stereo) [Example 482, rac-(1S*,2S*)—N-(6-((2R,4S)-2-(6-cyclopropyl-8-(2-oxo-3-azabicyclo[3.1.0]hexan-3-yl)imidazo[1,2-a]pyridin-2-yl)-4-hydroxypyrrolidin-1-yl)pyrimidin-4-yl)-2-(4-methylpyrimidin-2-yl)cyclopropane-1-carboxamide] are below 1 nM and 400 to 1500 nM.
The corresponding values for `Cc1nc(NC(=O)[C@H]2C[C@@H]2c2ncc(F)c(C)n2)cc(N[C@H](C)c2cn3cc(C4CC4)cc(N4CC(=O)N(C)C4=O)c3n2)n1` (relative stereo) [Example 491, rac-(-(1S*,2S*)-N-(6-(((R)-1-(6-cyclopropyl-8-(3-methyl-2,4-dioxoimidazolidin-1-yl)imidazo[1,2-a]pyridin-2-yl)ethyl)amino)-2-methylpyrimidin-4-yl)-2-(5-fluoro-4-methylpyrimidin-2-yl)cyclopropane-1-carboxamide] are below 1 nM and 400 to 1500 nM.
On the same counts, the results for `Cc1nc([C@H]2C[C@@H]2C(=O)Nc2cc(N[C@H](C)c3cn4cc(C5CC5)cc(N5CC(=O)N(C)C5=O)c4n3)ncn2)ncc1F` (relative stereo) [Example 492, rac-(-(1S*,2S*)-N-(6-(((R)-1-(6-cyclopropyl-8-(3-methyl-2,4-dioxoimidazolidin-1-yl)imidazo[1,2-a]pyridin-2-yl)ethyl)amino)pyrimidin-4-yl)-2-(5-fluoro-4-methylpyrimidin-2-yl)cyclopropane-1-carboxamide] are below 1 nM and 400 to 1500 nM.
`COc1ccnc([C@H]2C[C@@H]2C(=O)Nc2cc(N[C@H](C)c3cn4cc(C5CC5)cc(N5CC(=O)N(C)C5=O)c4n3)ncn2)n1` (relative stereo) [Example 529, rac-(1S*,2S*)-N-(6-(((R)-1-(6-cyclopropyl-8-(3-methyl-2,4-dioxoimidazolidin-1-yl)imidazo[1,2-a]pyridin-2-yl)ethyl)amino)pyrimidin-4-yl)-2-(4-methoxypyrimidin-2-yl)cyclopropane-1-carboxamide]: the EC50 in assay [1] was below 1 nM. In addition, the 90% effect concentration (IC90) on plasma kallikrein was 400 to 1500 nM.
The corresponding values for `Cc1ccnc([C@H]2C[C@@H]2C(=O)Nc2nccc(N3C[C@@H](O)C[C@@H]3c3cn4cc(C5CC5)cc(N5CC(=O)N(C)C5=O)c4n3)n2)n1` (relative stereo) [Example 541, rac-(1S*,2S*)—N-(4-((2R,4S)-2-(6-cyclopropyl-8-(3-methyl-2,4-dioxoimidazolidin-1-yl)imidazo[1,2-a]pyridin-2-yl)-4-hydroxypyrrolidin-1-yl)pyrimidin-2-yl)-2-(4-methylpyrimidin-2-yl)cyclopropane-1-carboxamide] are below 1 nM and 400 to 1500 nM.
On the same counts, the results for `Cc1ccnc([C@H]2C[C@@H]2C(=O)Nc2cc(OCc3cn4cc(C5CC5)cc(N5CC(=O)N(C)C5=O)c4n3)ncn2)n1` (single isomer, unassigned) [Example 30] are below 1 nM and below 400 nM.
`O=C(Nc1cc(NCc2cn3cc(C4CC4)ccc3n2)ncn1)[C@H]1C[C@@H]1c1cccc(Cl)c1` (single isomer, unassigned) [Example 57]: the EC50 in assay [1] lay in the range of 1 to 10 nM. For the same compound, at plasma kallikrein, the IC90 is above 48000 nM.
On the same counts, the results for `O=C(Nc1cc(NCc2cn3cc(C4CC4)ccc3n2)ccn1)[C@H]1C[C@@H]1c1cccc(Cl)c1` (single isomer, unassigned) [Example 117] are below 1 nM and 1500 to 10000 nM.
As to `Cc1ccnc([C@H]2C[C@@H]2C(=O)Nc2cc(NCc3cn4cc(C5CC5)cc(S(C)(=O)=O)c4n3)ncn2)n1` (single isomer, unassigned) [Example 324], the EC50 in assay [1] was below 1 nM. Besides, on plasma kallikrein, the concentration for an effect of 90% (IC90) is 400 to 1500 nM.
In the case of `Cc1ccnc([C@H]2C[C@@H]2C(=O)Nc2cc(N[C@H](C)c3cn4cc(C5CC5)cc(N5CC(=O)N(C)C5=O)c4n3)ncn2)n1` (single isomer, unassigned) [Example 451], the EC50 in assay [1] is below 1 nM. On plasma kallikrein, the IC90 was 400 to 1500 nM.
Take `Cc1ccnc([C@H]2C[C@@H]2C(=O)Nc2cc(N[C@H](C)c3cn4cc(C5CC5)cc(N5CC(=O)N(C)C5=O)c4n3)nc(C)n2)n1` (single isomer, unassigned) [Example 456]: the EC50 in assay [1] is below 1 nM. Also, on plasma kallikrein, the IC90 is below 400 nM.
On the same counts, the results for `COc1ccc(C#N)c([C@H]2C[C@@H]2C(=O)Nc2cc(NCc3cn4cc(C5CC5)ccc4n3)ccn2)c1` (single isomer, unassigned) [Example I-224, rac-(1S*,2S*)-2-(2-cyano-5-methoxyphenyl)-N-(4-(((6-cyclopropylimidazo[1,2-a]pyridin-2-yl)methyl)amino)pyridin-2-yl)cyclopropane-1-carboxamide] are below 1 nM and 10000 to 48000 nM.
Regarding `Cc1ccnc([C@H]2C[C@@H]2C(=O)Nc2cc(NCc3cn4cc(C5CC5)cc(N5CC(=O)N(C)C5=O)c4n3)ncn2)n1` (single isomer, unassigned) [Example I-260], the EC50 in assay [1] was below 1 nM. In addition, the IC90 on plasma kallikrein is below 400 nM.
The corresponding values for `CN1C(=O)CN(c2cc(C3CC3)cn3cc(CNc4cc(NC(=O)[C@H]5C[C@@H]5c5cc(Cl)ccn5)ncn4)nc23)C1=O` (single isomer, unassigned) [Example I-264] are below 1 nM and 400 to 1500 nM.
In the case of `O=C(Nc1cc(NCc2cn3cc(C4CC4)ccc3n2)ncn1)[C@H]1C[C@@H]1c1cc(Cl)ccn1` (single isomer, unassigned) [Example I-267, rac-(1S*,2S*)-2-(4-chloropyridin-2-yl)-N-(6-(((6-cyclopropylimidazo[1,2-a]pyridin-2-yl)methyl)amino)pyrimidin-4-yl)cyclopropane-1-carboxamide], the EC50 in assay [1] is 1 to 10 nM. Moreover, on plasma kallikrein, the IC90 lay within 10000 to 48000 nM.
Consider `O=C(Nc1cc(NCc2cn3cc(C4CC4)ccc3n2)ccn1)[C@H]1C[C@@H]1c1cc(Cl)ccn1` (single isomer, unassigned) [Example I-270, rac-(1S*,2S*)-2-(4-chloropyridin-2-yl)-N-(4-(((6-cyclopropylimidazo[1,2-a]pyridin-2-yl)methyl)amino)pyridin-2-yl)cyclopropane-1-carboxamide], for which the EC50 in assay [1] was below 1 nM. The IC90 on plasma kallikrein was in the range of 1500 to 10000 nM.
On the same counts, the results for `O=C(Nc1cc(N2C[C@@H](O)C[C@@H]2c2cn3cc(C4CC4)ccc3n2)ncn1)[C@H]1C[C@@H]1c1cc(Cl)ccn1` (single isomer, unassigned; isomer 2) [Example I-249, (1S*,2S*)-2-(4-chloropyridin-2-yl)-N-(6-((2R,4S)-2-(6-cyclopropylimidazo[1,2-a]pyridin-2-yl)-4-hydroxypyrrolidin-1-yl)pyrimidin-4-yl)cyclopropane-1-carboxamide, isomer 2] are 1 to 10 nM and below 400 nM.
On the same counts, the results for `Cc1ccnc([C@H]2C[C@@H]2C(=O)Nc2cc(OCc3cn4cc(C5CC5)cc(N5CC(=O)NC5=O)c4n3)ncn2)n1` [Example 32, (1S,2S)—N-(6-((6-cyclopropyl-8-(2,4-dioxoimidazolidin-1-yl)imidazo[1,2-a]pyridin-2-yl)methoxy)pyrimidin-4-yl)-2-(4-methylpyrimidin-2-yl)cyclopropane-1-carboxamide] are below 1 nM and below 400 nM.
On the same counts, the results for `Cc1cc(OCc2cn3cc(C4CC4)cc(N4CC(=O)N(C)C4=O)c3n2)cc(NC(=O)[C@H]2C[C@@H]2c2nccc(C)n2)n1` [Example 34, (1S,2S)—N-(4-((6-cyclopropyl-8-(3-methyl-2,4-dioxoimidazolidin-1-yl)imidazo[1,2-a]pyridin-2-yl)methoxy)-6-methylpyridin-2-yl)-2-(4-methylpyrimidin-2-yl)cyclopropane-1-carboxamide] are below 1 nM and below 400 nM.
On to `O=C(Nc1cc(NCc2cn3cc(C4CC4)cc(N4CCCC4=O)c3n2)ccn1)[C@H]1C[C@@H]1c1cccc(Cl)c1` [Example 85, (1S,2S)-2-(3-chlorophenyl)-N-(4-(((6-cyclopropyl-8-(2-oxopyrrolidin-1-yl)imidazo[1,2-a]pyridin-2-yl)methyl)amino)pyridin-2-yl)cyclopropane-1-carboxamide], for which the EC50 in assay [1] is below 1 nM. Further, at plasma kallikrein, the IC90 lay within 400 to 1500 nM.
Regarding `CN1CCN(c2cc(C3CC3)cn3cc(CNc4ccnc(NC(=O)[C@H]5C[C@@H]5c5cccc(Cl)c5)n4)nc23)CC1` [Example 88, (1S,2S)-2-(3-chlorophenyl)-N-(4-(((6-cyclopropyl-8-(4-methylpiperazin-1-yl)imidazo[1,2-a]pyridin-2-yl)methyl)amino)pyrimidin-2-yl)cyclopropane-1-carboxamide], the EC50 in assay [1] is below 1 nM. The IC90 at plasma kallikrein was in the range of 400 to 1500 nM.
